Measured values taken from patent US20210236582A1, “ANTIMICROBIAL COMPOSITION BASED ON POLYPHENOLS AND POLYSACCHARIDES, METHOD FOR PREPARING THEREOF AND USE OF THE SAME” (priority 2018, published 2021).
In brackets after ≈: the same amount, converted by molar mass.

Experiments:
[1] = system: Influenza A/Puerto-Rico/8/34 (H1N1) virus; assay type: cell-based; settings: for Antiviral activity against A/PR8 (H1N1) virus ΔlgTCID50 av: pronounced antiviral activity ≥ 1.50
in vitro = settings: dog
MDCK ECACC cell line = settings: MDCK ECACC cells, 48 h incubation, MTS

Molecule	Antiviral activity against A/PR8 (H1N1) virus ΔlgTCID50 av [1]	CC50 at 48 h (in vitro)	Antiviral activity against A/PR8 (H1N1) virus IC50 av ([1]; MDCK ECACC cells, assessed after 48 h by CPE and HAR)	Cytotoxicity CC50 av (MDCK ECACC cell line)
Cc1cc2c(C(C)C)c(O)c(O)cc2c(O)c1-c1c(C)cc2c(C(C)C)c(O)c(O)cc2c1O [Apogossypol, apogossypol]	0.50	9.4 µg/mL (≈ 20.3 µM)	–	–
gossypol acetic acid	1.32	–	0.0012	3.9 µg/mL
